In article PMC8196580, “Identification of Kaurane-Type Diterpenes as Inhibitors of Leishmania Pteridine Reductase I” (Molecules, 2021):
Like-named read-outs stand apart in the source and are kept apart here.

Tests used:
L. major [1] = experiment: ChEMBL dataset of pIC50 values against L. major used for the RF model (Table S1); type: cell-based, Leishmania major; also: call rule not given here
L. major [2] = test system: L. major; parameters: method as in ChEMBL; details: ref ChEMBL, cited from earlier work
[3] = Active/Inactive class assigned to ChemBL structures for Random forest model construction (Table S1)
[4] = ChemBL structures with pIC50 values used for Random forest model construction (Table S1)
[5] = Active/Inactive class assigned to the ChEMBL pIC50 value for Random forest model construction, ref ChEMBL
[6] = ChemBL structures with pIC50 values used for Random forest model construction, L. major

Structure (SMILES) | Outcome (L. major [1]; [3]) | pIC50 Value (L. major [2]; [4]) | Outcome (L. major [1]; [5]) | pIC50 Value (L. major [2]; [6])
Cc1ccc2cc(C3CC(c4ccc(C)s4)=NN3)c(Cl)nc2c1 (centres unmarked) [CHEMBL2236138] | Active | 5.58 |  | 
Cc1ccc2cc(C3CC(c4cc(C)sc4C)=NN3)c(Cl)nc2c1 (centres unmarked) [CHEMBL2236139] | Active | 5.67 |  | 
Cc1ccc2cc(C3CC(c4sccc4Cl)=NN3)c(Cl)nc2c1 (centres unmarked) [CHEMBL2236140] | Active | 5.67 |  | 
Cc1ccc2cc(C3CC(c4ccc(Cl)s4)=NN3)c(Cl)nc2c1 (centres unmarked) [CHEMBL2236141] | Active | 5.64 |  | 
Cc1ccc2cc(C3CC(c4cc(Cl)sc4Cl)=NN3)c(Cl)nc2c1 (centres unmarked) [CHEMBL2236142] | Active | 5.75 |  | 
Cc1ccc2cc(C3CC(c4sccc4Br)=NN3)c(Cl)nc2c1 (centres unmarked) [CHEMBL2236143] | Active | 5.68 |  | 
CC(=O)CCCCCCCCCC[C@H]1CC[C@@H](O)[C@@H](C)N1 [CHEMBL2262843] |  |  | Active | 5.27
Cc1ccc(-c2nc3ccccc3[nH]2)cc1 [CHEMBL2283280] | Active | 5.42 |  | 
Cc1ccc(-c2nc3ccc([N+](=O)[O-])cc3[nH]2)o1 [CHEMBL2295863] | Active | 5.58 |  | 
O=[N+]([O-])c1ccc2nc(-c3ccc(F)cc3)[nH]c2c1 [CHEMBL2297902] | Active | 5.52 |  | 
CCCCOc1ccc(-c2nc3cc([N+](=O)[O-])ccc3[nH]2)cc1 [CHEMBL2297903] | Active | 5.61 |  | 
CC(C)c1ccc(-c2nc3cc([N+](=O)[O-])ccc3[nH]2)cc1 [CHEMBL2297904] | Active | 5.55 |  | 
O=[N+]([O-])c1ccc2[nH]c(-c3c[nH]c4ccccc34)nc2c1 [CHEMBL2297905] | Active | 5.65 |  | 
O=[N+]([O-])c1ccc2nc(-c3ccc[nH]3)[nH]c2c1 [CHEMBL2297906] | Active | 5.40 |  | 
O=[N+]([O-])c1ccc2nc(-c3cccs3)[nH]c2c1 [CHEMBL2297907] | Active | 5.48 |  | 
COc1cccc(-c2nc3ccccc3[nH]2)c1 [CHEMBL2297908] | Active | 5.46 |  | 
CC(C)c1ccc(-c2nc3ccccc3[nH]2)cc1 [CHEMBL2298014] | Active | 5.57 |  | 
c1ccc2[nH]c(-c3c[nH]c4ccccc34)nc2c1 [CHEMBL2298015] | Active | 5.43 |  | 
c1c[nH]c(-c2nc3ccccc3[nH]2)c1 [CHEMBL2298016] | Active | 5.46 |  | 
Cc1ccc(-c2nc3ccccc3[nH]2)o1 [CHEMBL2298017] | Active | 5.37 |  | 
COc1cccc(-c2nc3ccc([N+](=O)[O-])cc3[nH]2)c1 [CHEMBL2298018] | Active | 5.52 |  | 
CC[C@H](CO)Nc1nc(NCc2cccc(OC)c2O)c2ncn(C(C)C)c2n1 [CHEMBL2349189] |  |  | Inactive | 4.01
NCCOc1cc(C(=O)Nc2cc(OCCN)c3ccccc3n2)nc(C(=O)Nc2cc(OCCN)c3ccccc3n2)c1 [CHEMBL2349416] | Active | 5.30 |  | 
CC(=O)C1=C(C)NC(=S)NC1c1ccccc1 (centres unmarked) [CHEMBL2359517] | Active | 5.50 |  | 
COc1ccccc1C(=O)N/N=C/c1ccccn1 [CHEMBL2382029] |  |  | Inactive | 4.22
COc1ccccc1C(=O)N/N=C/c1ccncc1 [CHEMBL2382030] |  |  | Inactive | 4.12

Structure (SMILES) | Outcome (L. major [1]; [3]) | pIC50 Value (L. major [2]; [4]) | Outcome (L. major [1]; [5]) | pIC50 Value (L. major [2]; [6])
COC(=O)c1ccc(/C=N/NC(=O)c2ccccc2OC)cc1 [CHEMBL2382031] |  |  | Inactive | 4.81
COc1ccccc1C(=O)N/N=C/c1ccc(Br)c(F)c1 [CHEMBL2382032] |  |  | Inactive | 4.11
COc1ccccc1C(=O)N/N=C/c1cc(O)c(O)c(O)c1 [CHEMBL2382033] |  |  | Inactive | 4.50
COc1ccccc1C(=O)N/N=C/c1ccc(O)c(O)c1 [CHEMBL2382034] | Active | 5.48 |  | 
COc1ccccc1C(=O)N/N=C/c1cc(O)cc(O)c1 [CHEMBL2382035] |  |  | Inactive | 4.55
COc1ccccc1C(=O)N/N=C/c1cccc(O)c1 [CHEMBL2382036] |  |  | Inactive | 4.48
COc1ccccc1C(=O)N/N=C/c1ccccc1O [CHEMBL2382037] |  |  | Inactive | 4.45
COc1ccc(O)c(/C=N/NC(=O)c2ccccc2OC)c1 [CHEMBL2382038] |  |  | Inactive | 4.00
COc1ccc(/C=N/NC(=O)c2ccccc2OC)cc1Br [CHEMBL2382039] |  |  | Active | 5.12
COc1ccc(/C=N/NC(=O)c2ccccc2OC)cc1OC [CHEMBL2382040] |  |  | Inactive | 4.88
COc1ccc(/C=N/NC(=O)c2ccccc2OC)cc1 [CHEMBL2382041] |  |  | Inactive | 4.40
COc1ccccc1C(=O)N/N=C/c1cccnc1 [CHEMBL2382042] | Active | 5.71 |  | 
COc1ccccc1C(=O)N/N=C/c1cccs1 [CHEMBL2382043] | Active | 5.60 |  | 
COc1ccccc1C(=O)N/N=C/c1ccc([N+](=O)[O-])cc1 [CHEMBL2382044] |  |  | Inactive | 4.50
COc1ccccc1C(=O)N/N=C/c1ccc(Cl)cc1 [CHEMBL2382045] |  |  | Inactive | 4.16
COc1ccccc1C(=O)N/N=C/c1cccc(O)c1O [CHEMBL2382046] |  |  | Inactive | 4.17
COc1ccccc1C(=O)N/N=C/c1cc(O)ccc1O [CHEMBL2382047] |  |  | Inactive | 4.46
COc1ccccc1C(=O)N/N=C/c1ccc(O)cc1O [CHEMBL2382048] |  |  | Inactive | 4.05
COc1ccccc1C(=O)N/N=C/c1ccc(O)cc1 [CHEMBL2382049] |  |  | Inactive | 4.24
COc1ccc(/C=N/NC(=O)c2ccccc2OC)c(O)c1 [CHEMBL2382050] |  |  | Inactive | 4.88
COc1ccc(/C=N/NC(=O)c2ccccc2OC)cc1O [CHEMBL2382051] |  |  | Inactive | 4.34
COc1ccccc1C(=O)N/N=C/c1ccc(OC)c(O)c1I [CHEMBL2382052] |  |  | Inactive | 4.20
COc1cc(/C=N/NC(=O)c2ccccc2OC)cc(OC)c1 [CHEMBL2382053] |  |  | Inactive | 4.27
C/C=C/C=C/c1nc2ccccc2n2cccc12 [CHEMBL3260206] | Active | 5.33 |  | 
C/C=C/C=C/c1nc2cc(OC)ccc2n2cccc12 [CHEMBL3260207] | Active | 5.52 |  | 
C/C=C/C=C/c1nc2ccc(OC)cc2n2cccc12 [CHEMBL3260208] | Active | 5.57 |  | 
